The text below walks through data of patent US10214534B2, “Substituted 2-phenyl (AZA)benzofuran compounds for the treatment of hepatitis C” (BRISTOL-MYERS SQUIBB COMPANY, priority 2014, dated 2019).

The term EC50 denotes the midpoint of the concentration-response curve.

Where two headings read alike, the source gives them in different places. A value given as a limit tells only on which side of the number the result lay.

In data set [1] the test system is genotype 1b (Con-1) HCV replicon. As to the kind of experiment: HCV replicon luciferase assay. It is filed as cell-based. Particulars: Hepatitis C virus, 72 h, genotype 1b replicon, Huh-7, Renilla luciferase, 3 days. How it is done: The cell lines used to evaluate compounds consist of a human hepatocyte derived cell line (Huh-7) that constitutively expresses a genotype 1b (Con-1) HCV replicon or a genotype 1b (Con-1) HCV replicon with an asparagine replacing the cysteine at amino acid 316, or a genotype 2a (JFH-1) replicon, containing a Renilla luciferase reporter gene. These cells were maintained in Dulbecco's modified Eagle medium (DMEM) containing 10% FBS, 100 U/mL penicillin/streptomycin and 1.0 mg/mL G418.
To evaluate compound efficacy, titrated compounds were transferred to sterile 384-well tissue culture treated plates, and the plates were seeded with HCV replicon cells (50 μL at a density of 2.4×10^3 cells/well) in DMEM containing 4% FBS (final DMSO concentration at 0.5%). After 3 days incubation at 37° C., cells were analyzed for Renilla Luciferase activity using the EnduRen substrate (Promega cat #E6485) according to the manufacturer's directions. Briefly, the EnduRen substrate was diluted in DMEM and then added to the plates to a final concentration of 7.5 μM. The plates were incubated for at least 1 h at 37° C. then read on a Viewlux Imager (PerkinElmer) using a luminescence program. The 50% effective concentration (EC50) was calculated using the four-parameter logistic formula noted above.
(In general: Replicon systems follow genome replication, usually without infectious particles.)

Data set [2] concerns HCV. To be noted: cited from earlier work.
The subject of data set [3] is HCV. Particulars: cited from earlier work. This is another data set of the same source.

With `[2H]C([2H])([2H])C(NC(=O)c1cc(-c2cc3c(C(=O)NC)c(-c4ccc(Oc5ccc(F)cc5)cc4)oc3cc2N(CC)S(C)(=O)=O)ccc1OC)(C([2H])([2H])[2H])C([2H])([2H])[2H]` [Compound 1022], the EC50 in data set [1] (read-out: EC50 1b (class)) is less than 0.1 µM.

As to `CCN(c1cc2oc(-c3ccc(Oc4cccc(F)c4)cc3)c(C(=O)NC)c2cc1-c1cccc(C(=O)NCC(C)(C)CO)c1)S(C)(=O)=O` [Compound 1023], the 50% effective concentration (EC50) is less than 0.1 µM in data set [1] (read-out: EC50 1b (class)) and 0.0028 µM in data set [1] (read-out: EC50 (uM) 1b).

Consider `CNC(=O)c1c(-c2ccc(Oc3ccc(F)cc3)cc2)oc2cc(N(C)S(C)(=O)=O)c(-c3cccc(C(=O)NCC(F)(F)F)c3)cc12` [Compound 1026], for which, in data set [1] (read-out: EC50 1b (class)), the EC50 was less than 0.1 µM.

For `CNC(=O)c1c(-c2ccc(Oc3ccccc3)cc2)oc2nc(CCC(F)(F)F)c(-c3cccc(C(=O)NC(C)(C)C)c3)cc12` [Compound 2001], in data set [1] (read-out: EC50 1b (class)), the EC50 was less than 0.1 µM.

In the case of `CNC(=O)c1c(-c2ccc(Oc3ccc(C)cc3)cc2)oc2nc(CCC(F)(F)F)c(-c3cccc(C(=O)NC(C)(C)C)c3)cc12` [Compound 2002], the EC50 in data set [1] (read-out: EC50 1b (class)) was less than 0.1 µM.

Regarding `CNC(=O)c1c(-c2ccc(Oc3ccc(OC)cc3)cc2)oc2nc(CCC(F)(F)F)c(-c3cccc(C(=O)NC(C)(C)C)c3)cc12` [Compound 2003], the EC50 in data set [1] (read-out: EC50 1b (class)) is 0.1 to 1 µM.

For the molecule `CNC(=O)c1c(-c2ccc(Oc3ccc(F)cc3)cc2)oc2nc(CCC(F)(F)F)c(-c3cccc(C(=O)NC(C)(C)C)c3)cc12` [Compound 2004], the concentration giving a half-maximal response (EC50) in data set [1] (read-out: EC50 1b (class)) is less than 0.1 µM.

As for `CNC(=O)c1c(-c2ccc(Oc3cccc(F)c3)cc2)oc2nc(CCC(F)(F)F)c(-c3cccc(C(=O)NC(C)(C)C)c3)cc12` [Compound 2005], the concentration giving a half-maximal response (EC50) in data set [1] (read-out: EC50 1b (class)) is less than 0.1 µM.

Turning to `CNC(=O)c1c(-c2ccc(Oc3ccccc3F)cc2)oc2nc(CCC(F)(F)F)c(-c3cccc(C(=O)NC(C)(C)C)c3)cc12` [Compound 2006], in data set [1] (read-out: EC50 1b (class)), the 50% effective concentration (EC50) is less than 0.1 µM.

Consider `CNC(=O)c1c(-c2ccc(Oc3cccc(C)c3)cc2)oc2nc(CCC(F)(F)F)c(-c3cccc(C(=O)NC(C)(C)C)c3)cc12` [Compound 2007], for which the concentration for a half-maximal effect (EC50) in data set [1] (read-out: EC50 1b (class)) was less than 0.1 µM.

For the molecule `CNC(=O)c1c(-c2ccc(Oc3ccccc3C)cc2)oc2nc(CCC(F)(F)F)c(-c3cccc(C(=O)NC(C)(C)C)c3)cc12` [Compound 2008], the concentration for a half-maximal effect (EC50) in data set [1] (read-out: EC50 1b (class)) is less than 0.1 µM.

With `CNC(=O)c1c(-c2ccc(Oc3cccc(OC)c3)cc2)oc2nc(CCC(F)(F)F)c(-c3cccc(C(=O)NC(C)(C)C)c3)cc12` [Compound 2009], the EC50 in data set [1] (read-out: EC50 1b (class)) was less than 0.1 µM.

For `CNC(=O)c1c(-c2ccc(Oc3ccccc3OC)cc2)oc2nc(CCC(F)(F)F)c(-c3cccc(C(=O)NC(C)(C)C)c3)cc12` [Compound 2010], the 50% effective concentration (EC50) in data set [1] (read-out: EC50 1b (class)) was less than 0.1 µM.

As for `CNC(=O)c1c(-c2ccc(Oc3cccnc3)cc2)oc2nc(CCC(F)(F)F)c(-c3cccc(C(=O)NC(C)(C)C)c3)cc12` [Compound 2011], the concentration giving a half-maximal response (EC50) in data set [1] (read-out: EC50 1b (class)) is less than 0.1 µM.

With `CNC(=O)c1c(-c2ccc(Oc3ccccn3)cc2)oc2nc(CCC(F)(F)F)c(-c3cccc(C(=O)NC(C)(C)C)c3)cc12` [Compound 2012], the EC50 in data set [1] (read-out: EC50 1b (class)) is greater than 1 µM.

Regarding `CNC(=O)c1c(-c2ccc(Oc3ccc(C(=O)O)cc3)cc2)oc2nc(CCC(F)(F)F)c(-c3cccc(C(=O)NC(C)(C)C)c3)cc12` [Compound 2013], the concentration for a half-maximal effect (EC50) in data set [1] (read-out: EC50 1b (class)) is greater than 1 µM.

In the case of `CNC(=O)c1c(-c2ccc(Oc3cccc(F)c3)cc2)oc2nc(CCC(F)(F)F)c(-c3ccc(OC)c(C(=O)NC4(c5ncccn5)CC4)c3)cc12` [Compound 2014], the EC50 in data set [1] (read-out: EC50 1b (class)) is less than 0.1 µM.

Take `CCCCOc1ccc(-c2oc3nc(CCC(F)(F)F)c(-c4cccc(C(=O)NC(C)(C)C)c4)cc3c2C(=O)NC)cc1` [Compound 3001]: the EC50 in data set [1] (read-out: EC50 1b (class)) was less than 0.1 µM.

For the molecule `CNC(=O)c1c(-c2ccc(OCC(F)(F)F)cc2)oc2nc(CCC(F)(F)F)c(-c3cccc(C(=O)NC(C)(C)C)c3)cc12` [Compound 3002], the 50% effective concentration (EC50) in data set [1] (read-out: EC50 1b (class)) is less than 0.1 µM.

`CNC(=O)c1c(-c2ccc(N3CCCC3)cc2)oc2nc(CCC(F)(F)F)c(-c3cccc(C(=O)NC(C)(C)C)c3)cc12` [Compound 4001]: the EC50 in data set [1] (read-out: EC50 1b (class)) is greater than 1 µM.

`CNC(=O)c1c(-c2ccc(NCC(F)F)cc2)oc2nc(NCC(F)F)c(-c3cccc(C(=O)NC(C)(C)C)c3)cc12` [Compound 4002]: the results for the EC50 in data set [1] (read-out: EC50 1b (class)) and in data set [1] (read-out: EC50 (uM) 1b) were less than 0.1 µM and 0.0094 µM, respectively.

As to `CNC(=O)c1c(-c2ccc(Sc3ccccc3)cc2)oc2nc(CCC(F)(F)F)c(-c3cccc(C(=O)NC(C)(C)C)c3)cc12` [Compound 5001], the EC50 is 0.1 to 1 µM in data set [1] (read-out: EC50 1b (class)) and 0.16 µM in data set [1] (read-out: EC50 (uM) 1b).

Turning to `CNC(=O)c1c(-c2ccc(C(C#N)C(N)=O)cc2)oc2nc(CCC(F)(F)F)c(-c3cccc(C(=O)NC(C)(C)C)c3)cc12` (stereo not shown) [Compound 6001], the results for the half-maximal effective concentration (EC50) in data set [1] (read-out: EC50 1b (class)) and in data set [1] (read-out: EC50 (uM) 1b) were 0.1 to 1 µM and 0.34 µM, respectively.

On to `CCNc1nc2oc(-c3ccc(C)cc3)c(C(=O)NC)c2cc1-c1cccc(C(=O)NC(C)(C)C)c1` [Compound 6002, 5-(3-(tert-butylcarbamoyl)phenyl)-6-(ethylamino)-N-methyl-2-(p-tolyl)furo[2,3-b]pyridine-3-carboxamide], for which the EC50 is less than 0.1 µM in data set [1] (read-out: EC50 1b (class)) and 0.0036 µM in data set [1] (read-out: EC50 (uM) 1b).

Regarding `CCNc1nc2oc(-c3ccc(C)cc3)c(C(=O)NC)c2cc1-c1cccc(C(=O)NC2(C(F)(F)F)CC2)c1` [Compound 6003, 6-(ethylamino)-N-methyl-2-(p-tolyl)-5-(3-((1-(trifluoromethyl)cyclopropyl)carbamoyl)phenyl)furo[2,3-b]pyridine-3-carboxamide], the concentration giving a half-maximal response (EC50) was less than 0.1 µM in data set [1] (read-out: EC50 1b (class)) and 0.0061 µM in data set [1] (read-out: EC50 (uM) 1b).

With `CNC(=O)c1c(-c2ccc(F)cc2)oc2cc(N(CCO)S(C)(=O)=O)c(C3CC3)cc12` [HCV-796], in the data set on HCV [2] (extended dosing of the combination regimens), the “toxicity during extended dosing” value is reported as “hepatic toxicity”. Besides, in the data set on HCV [2] (patients, single agent transient, more robust with interferon and ribavirin), the “HCV RNA levels in patients” value was “reduce HCV RNA levels”.

On to alpha-interferon and ribavirin, for which the “sustained efficacy, share of patients” value in the data set with HCV [3] is 40%.
